Patent publication US20100010219A1, “METHOD FOR PRODUCING PYRROLIDINE COMPOUND” (JAPAN TOBACCO INC., priority 2006, published 2010)
Where a name gives a salt, the structure may show the parent alone.

target: T1, human HSD-1 (recombinant HSD-1) (Homo sapiens, UniProt P28845); assay: HSD-1 activity inhibitory action in vitro (SPA, conversion of cortisone to cortisol); format: biochemical; details: recombinant human HSD-1 expressed using baculovirus system; 10 nM 3H cortisone, 500 μM NADPH; room temperature 90 to 120 min; read-out: hHSD1 (IC50 (nM))
T1 construct: made in house
T1 sequence (P28845 whole entry): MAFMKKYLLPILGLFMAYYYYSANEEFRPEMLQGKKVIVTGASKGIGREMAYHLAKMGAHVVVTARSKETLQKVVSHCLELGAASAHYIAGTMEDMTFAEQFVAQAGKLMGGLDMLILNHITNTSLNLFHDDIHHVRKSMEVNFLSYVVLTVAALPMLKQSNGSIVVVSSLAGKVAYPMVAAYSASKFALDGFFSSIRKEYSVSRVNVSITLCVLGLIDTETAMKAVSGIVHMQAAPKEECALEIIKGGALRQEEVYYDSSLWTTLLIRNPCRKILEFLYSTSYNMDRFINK

IC50, < 30 nM:
O=C(c1ccccc1Cl)N1CCC(n2ncc(C(=O)N3CCC(c4cccnc4)C3)c2C2CC2)CC1 (stereo not drawn) [Example 157, 1-{1-[1-(2-chlorobenzoyl)piperidin-4-yl]-5-cyclopropyl-1H-pyrazole-4-carbonyl}-3-(pyridin-3-yl)pyrrolidine]
O=C(c1cnn(C2CN(c3ccc(Cl)cn3)C2)c1C1CC1)N1CCC(c2ccccc2C(F)(F)F)C1 (stereo not drawn) [Example 173]
CC(=O)N1CCN(C(=O)N2CCC(n3ncc(C(=O)N4CC[C@@H](c5ccccc5C(F)(F)F)C4)c3C3CC3)CC2)CC1 [Example 31, 1-{1-[1-(4-acetylpiperazine-1-carbonyl)piperidin-4-yl]-5-cyclopropyl-1H-pyrazole-4-carbonyl}-[(S)-3-(2-trifluoromethylphenyl)]pyrrolidine]
O=C(NC1(CO)CCCC1)N1CCC(n2ncc(C(=O)N3CC[C@@H](c4ccccc4C(F)(F)F)C3)c2C2CC2)CC1 [Example 54, 1-{5-cyclopropyl-1-[1-(1-hydroxymethylcyclopentylcarbamoyl)piperidin-4-yl]-1H-pyrazole-4-carbonyl}-[(S)-3-(2-trifluoromethylphenyl)]pyrrolidine]
O=C(O)C1CCN(C(=O)N2CCC(n3ncc(C(=O)N4CC[C@@H](c5ccccc5C(F)(F)F)C4)c3C3CC3)CC2)CC1 [Example 25, 1-{1-[1-(4-carboxypiperidine-1-carbonyl)piperidin-4-yl]-5-cyclopropyl-1H-pyrazole-4-carbonyl}-[(S)-3-(2-trifluoromethylphenyl)]pyrrolidine]
NC(=O)[C@H]1CC[C@H](n2ncc(C(=O)N3CC[C@@H](c4ccccc4C(F)(F)F)C3)c2C2CC2)CC1 [Example 130, 1-[1-(trans-4-carbamoylcyclohexyl)-5-cyclopropyl-1H-pyrazole-4-carbonyl]-[(S)-3-(2-trifluoromethylphenyl)]pyrrolidine]
O=C(c1cnn(C2CCN(c3n[nH]c(CO)n3)CC2)c1C1CC1)N1CC[C@@H](c2ccccc2C(F)(F)F)C1 [Example 119, 1-{5-cyclopropyl-1-[1-(5-hydroxymethyl-4H-[1,2,4]triazol-3-yl)piperidin-4-yl]-1H-pyrazole-4-carbonyl}-[(S)-3-(2-trifluoromethylphenyl)]pyrrolidine hydrochloride]
NC(=O)N[C@H]1CC[C@H](n2ncc(C(=O)N3CC[C@@H](c4ccccc4C(F)(F)F)C3)c2C2CC2)CC1 [Example 131, 1-[5-cyclopropyl-1-(trans-4-ureidocyclohexyl)-1H-pyrazole-4-carbonyl]-[(S)-3-(2-trifluoromethylphenyl)]pyrrolidine]
C[C@@H]1CN(C(=O)c2cnn(C3CCN(c4ncccn4)CC3)c2C2(C)CC2)C[C@H]1c1ccccc1 (relative stereo) [Example 177, {(3S*,4R*)-3-methyl-1-{5-(1-methylcyclopropyl)-1-[1-(pyrimidin-2-yl)piperidin-4-yl]-1H-pyrazole-4-carbonyl}-4-phenylpyrrolidine hydrochloride]
CC(C)(CO)NC(=O)N1CCC(n2ncc(C(=O)N3CC[C@@H](c4ccccc4C(F)(F)F)C3)c2C2CC2)CC1 [Example 9, 1-{5-cyclopropyl-1-[1-(2-hydroxy-1,1-dimethylethylcarbamoyl)piperidin-4-yl]-1H-pyrazole-4-carbonyl}-[(S)-3-(2-trifluoromethylphenyl)]pyrrolidine]
CC1(C)C(c2c(C(=O)N3CCC(c4cccnc4)C3)cnn2C2CCN(C(=O)Nc3ccccc3F)CC2)C1(C)C (stereo not drawn) [Example 138, 1-{1-[1-(2-fluorophenylcarbamoyl)piperidin-4-yl]-5-(2,2,3,3-tetramethylcyclopropyl)-1H-pyrazole-4-carbonyl}-3-(pyridin-3-yl)pyrrolidine]
CC(=O)NC1CCN(C(=O)N2CCC(n3ncc(C(=O)N4CC[C@@H](c5ccccc5C(F)(F)F)C4)c3C3CC3)CC2)CC1 [Example 39, 1-{1-[1-(4-acetylaminopiperidine-1-carbonyl)piperidin-4-yl]-5-cyclopropyl-1H-pyrazole-4-carbonyl}-[(S)-3-(2-trifluoromethylphenyl)]pyrrolidine]
O=C(O)c1ccc(N2CCC(n3ncc(C(=O)N4CCC(c5ccccc5C(F)(F)F)C4)c3C3CC3)CC2)c(F)c1 (stereo not drawn) [Example 183, Sodium 4-(4-{5-cyclopropyl-4-[3-(2-trifluoromethylphenyl)pyrrolidine-1-carbonyl]pyrazol-1-yl}piperidin-1-yl)-3-fluorobenzoate]
CC(=O)NCCNC(=O)N1CCC(n2ncc(C(=O)N3CC[C@@H](c4ccccc4C(F)(F)F)C3)c2C2CC2)CC1 [Example 10, 1-{1-[1-(2-acetylaminoethylcarbamoyl)piperidin-4-yl]-5-cyclopropyl-1H-pyrazole-4-carbonyl}-[(S)-3-(2-trifluoromethylphenyl)]pyrrolidine]
COC(=O)c1ccc(N2CCC(n3ncc(C(=O)N4CCC(c5ccccc5C(F)(F)F)C4)c3C3CC3)CC2)nc1 (stereo not drawn) [Example 178, methyl 6-(4-{5-cyclopropyl-4-[3-(2-trifluoromethylphenyl)pyrrolidine-1-carbonyl]pyrazol-1-yl}piperidin-1-yl)nicotinate]
CC(C)[C@@H](C(=O)O)N(C)C(=O)[C@H]1CC[C@H](n2ncc(C(=O)N3CCC(c4ccccc4C(F)(F)F)C3)c2C2CC2)CC1 (stereo partly drawn) [Example 189, (S)-2-[(trans-4-{5-cyclopropyl-4-[3-(2-trifluoromethylphenyl)pyrrolidine-1-carbonyl]pyrazol-1-yl}cyclohexanecarbonyl)methylamino]-3-methylbutyric acid]
O=C(c1cnn(C2CCN(c3cnccn3)CC2)c1C1CC1)N1CC[C@@H](c2ccccc2C(F)(F)F)C1 [Example 129, 1-[5-cyclopropyl-1-(1-pyrazin-2-ylpiperidin-4-yl)-1H-pyrazole-4-carbonyl]-[(S)-3-(2-trifluoromethylphenyl)]pyrrolidine hydrochloride]
O=C(c1cnn(C2CCN(C(=O)N3CCC(F)(F)CC3)CC2)c1C1CC1)N1CC[C@@H](c2ccccc2C(F)(F)F)C1 [Example 18, 1-{5-cyclopropyl-1-[1-(4,4-difluoropiperidine-1-carbonyl)piperidin-4-yl]-1H-pyrazole-4-carbonyl}-[(S)-3-(2-trifluoromethylphenyl)]pyrrolidine]
O=C(c1cnn(C2CCN(C(=O)N3CC(F)(F)C(F)(F)C3)CC2)c1C1CC1)N1CC[C@@H](c2ccccc2C(F)(F)F)C1 [Example 48, 1-{5-cyclopropyl-1-[1-(3,3,4,4-tetrafluoropyrrolidine-1-carbonyl)piperidin-4-yl]-1H-pyrazole-4-carbonyl}-[(S)-3-(2-trifluoromethylphenyl)]pyrrolidine]
CCONC(=O)N1CCC(n2ncc(C(=O)N3CCC(c4ccccc4C(F)(F)F)C3)c2C2(C)CC2)CC1 (stereo not drawn) [Example 172, 1-[1-(1-ethoxycarbamoylpiperidin-4-yl)-5-(1-methylcyclopropyl)-1H-pyrazole-4-carbonyl]-3-(2-trifluoromethylphenyl)pyrrolidine]
CC1(c2c(C(=O)N3CCC(c4cccnc4)C3)cnn2C2CCN(C(=O)Nc3ccc(C(F)(F)F)cc3)CC2)CC1 (stereo not drawn) [Example 133, 1-{5-(1-methylcyclopropyl)-1-[1-(4-trifluoromethylphenylcarbamoyl)piperidin-4-yl]-1H-pyrazole-4-carbonyl}-3-(pyridin-3-yl)pyrrolidine]
O=C(OC1CCNCC1)N1CCC(n2ncc(C(=O)N3CC[C@@H](c4ccccc4C(F)(F)F)C3)c2C2CC2)CC1 [Example 61, 1-{5-cyclopropyl-1-[1-(piperidin-4-yl-oxycarbonyl)piperidin-4-yl]-1H-pyrazole-4-carbonyl}-[(S)-3-(2-trifluoromethylphenyl)]pyrrolidine hydrochloride]
O=C(c1cnn(C2CCN(C(=O)N3CCC(O)C3)CC2)c1C1CC1)N1CC[C@@H](c2ccccc2C(F)(F)F)C1 (stereo partly drawn) [Example 16, 1-{5-cyclopropyl-1-[1-(3-hydroxypyrrolidine-1-carbonyl)piperidin-4-yl]-1H-pyrazole-4-carbonyl}-[(S)-3-(2-trifluoromethylphenyl)]pyrrolidine]
NC(=O)N1CCC(n2ncc(C(=O)N3CC[C@@H](c4ccccc4C(F)(F)F)C3)c2C2CC2)CC1 [Example 4, 1-[1-(1-carbamoylpiperidin-4-yl)-5-cyclopropyl-1H-pyrazole-4-carbonyl]-[(S)-3-(2-trifluoromethylphenyl)]pyrrolidine]
O=C1CN(C(=O)N2CCC(n3ncc(C(=O)N4CC[C@@H](c5ccccc5C(F)(F)F)C4)c3C3CC3)CC2)CCN1 [Example 26, 1-{5-cyclopropyl-1-[1-(3-oxopiperazine-1-carbonyl)piperidin-4-yl]-1H-pyrazole-4-carbonyl}-[(S)-3-(2-trifluoromethylphenyl)]pyrrolidine]
CC(C)N1CCN(C(=O)N2CCC(n3ncc(C(=O)N4CC[C@@H](c5ccccc5C(F)(F)F)C4)c3C3CC3)CC2)CC1 [Example 30, 1-{5-cyclopropyl-1-[1-(4-isopropylpiperazine-1-carbonyl)piperidin-4-yl]-1H-pyrazole-4-carbonyl}-[(S)-3-(2-trifluoromethylphenyl)]pyrrolidine hydrochloride]
Nc1ccc(N2CCC(n3ncc(C(=O)N4CCC(c5ccccc5C(F)(F)F)C4)c3C3CC3)CC2)cc1 (stereo not drawn) [Example 168, 1-{1-[1-(4-aminophenyl)piperidin-4-yl]-5-cyclopropyl-1H-pyrazole-4-carbonyl}-3-(2-trifluoromethylphenyl)pyrrolidine]
